Experimental data as given in PubChem BioAssay AID732 (Emory University Molecular Libraries Screening Center, 2007).
“And” between values parts separate entries of the source, which are not always exact repeats. Equal entries are not always repeated. The source made the active and inactive calls. The rule behind the calls is not given here.

Test system: in vivo angiogenesis, blood vessel count
Assay: angiogenesis inhibition in living animals, in vivo study, HTS (AID 732);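 note: zebrafish embryos dosed at one day post fertilization; 0% = reference inhibitor and 100% = plate mean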
Conditions: stronger effect = lower value;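 tested at 30 µM in the well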

Structure (SMILES) | vessel count % control
CNCCC(Oc1ccccc1OC)c1ccccc1 (stereo not drawn) | 113% (inactive)
CC(C)NC[C@@H](O)COc1ccc(CC(N)=O)cc1 | 94.2% (inactive)
CCS(=O)(=O)Nc1cccc(C(=C2CCCCC2)c2cnc[nH]2)c1 | 98.4% (inactive)
CCCN1CCc2cc(O)cc3c2[C@H]1Cc1ccc(O)c(O)c1-3 | 114% (inactive)
CC(O)C(O)[C@H]1CNc2nc(N)[nH]c(=O)c2N1 (stereo partly drawn) | 125% (inactive)
O=C1c2c(O)ccc(O)c2C(=O)c2c(NCCNCCO)ccc(NCCNCCO)c21 | 136% (inactive)
N[C@@H](CCC(=O)N[C@H](CSN=O)C(=O)NCC(=O)O)C(=O)O | 97.4% (inactive)
O=C(O)c1cc(=O)c2ccccc2[nH]1 | 97.4% (inactive)
Nc1nc(Nc2ccccc2)nc2c1ncn2[C@@H]1O[C@H](CO)[C@H](O)C1O (stereo partly drawn) | 94.3% (inactive)
O=C(OC1CCN(CCCl)CC1)C(c1ccccc1)c1ccccc1 | 102% (inactive)
CCN(CC)CCOC(=O)C1(C2CCCCC2)CCCCC1 | 86.4% (inactive)
CCCCCCN(CCCCCC)C(=O)Cc1c(-c2ccc(F)cc2)[nH]c2ccccc12 | 126% (inactive)
Cn1c(=O)c2[nH]c(-c3ccc(S(=O)(=O)O)cc3)nc2n(C)c1=O | 106% (inactive)
CNCC[C@H](Oc1ccc(C(F)(F)F)cc1)c1ccccc1 | 98.4% (inactive)
O=[N+]([O-])c1ccc(-c2nc(-c3ccc(F)cc3)c(-c3ccncc3)[nH]2)cc1 | 124% (inactive)
Oc1[nH]c2c(Cl)cc(Cl)cc2c1C1=Nc2ccc(Br)cc2/C1=N\OCCN1CCCC1 | 93.4% (inactive)
Cc1cn([C@H]2C[C@@H](N=[N+]=[N-])[C@@H](CO)O2)c(=O)[nH]c1=O | 91.6% (inactive)
CCCCc1ccc(C(=O)O)nc1 | 115% (inactive)
c1cnc(N2CCN(Cc3ccc4c(c3)OCO4)CC2)nc1 | 106% (inactive)
CCN(CC)C(=S)SSC(=S)N(CC)CC | 0% (inactive)
O=Nc1c(-c2c(O)[nH]c3ccc(F)cc23)[nH]c2ccccc12 | 48.1% (inactive)
NCCCNCCSP(=O)(O)O | 93.3% (inactive)
CN1CCCC1CCOC(C)(c1ccccc1)c1ccc(Cl)cc1 (stereo not drawn) | 67.5% (inactive)
N[C@H](CO)C(=O)O | 105% (inactive)
O=C1C(SCCO)=C(SCCO)C(=O)c2ccccc21 | 0% (inactive)

Structure (SMILES) | vessel count % control
[Li+] | 0% (inactive)
O=[N+]([O-])c1cc(O)c(O)c([N+](=O)[O-])c1 | 89.3% (inactive)
CN(C)CCCN1c2ccccc2Sc2ccc(C(F)(F)F)cc21 | 105% (inactive)
Nc1nc(Cl)nc2c1ncn2[C@@H]1O[C@H](CO)[C@H](O)C1O (stereo partly drawn) | 107% (inactive)
O=Nc1c(-c2c(O)[nH]c3c(Cl)cc(Cl)cc23)[nH]c2ccc(Br)cc12 | 126% (inactive)
CC(N)=NCCC[C@H](N)C(=O)O | 134% (inactive)
CNc1ncnc2c1ncn2[C@@H]1O[C@H](CO)[C@H](O)C1O (stereo partly drawn) | 95.4% (inactive)
Nc1ncnc2c1nc(Sc1ccc(Cl)cc1)n2C1OC2COP(=O)(O)O[C@@H]2[C@@H]1O (stereo partly drawn) | 88.9% (inactive)
COc1cc(Cc2cnc(N)nc2N)cc(OC)c1OC | 114% (inactive)
CC1CCN(CC[C@H]2CCCN2S(=O)(=O)c2cccc(O)c2)CC1 | 95.5% (inactive)
COC(=O)C1=C(C)NC(C)=C(C(=O)OCCN(C)Cc2ccccc2)C1c1cccc([N+](=O)[O-])c1 (stereo not drawn) | 65.5% (inactive)
CC#CCOC(=O)c1c(C)nc2sc3c(c2c1N)CCC(O)C3 (stereo not drawn) | 116% (inactive)
O=C(O)CC[N+](=O)[O-] | 87.6% (inactive)
OC[C@H]1O[C@@H](n2cnc3c(N[C@H]4CC5CCC4C5)ncnc32)[C@H](O)[C@@H]1O (stereo partly drawn) | 77.1% (inactive)
CCCC(=O)NCCc1c2n(c3ccc(OC)cc13)CCCc1ccccc1-2 | 92.5% (inactive)
COCCOC(=O)C1=C(C)NC(C)=C(C(=O)OC(C)C)C1c1cccc([N+](=O)[O-])c1 (stereo not drawn) | 95.6% (inactive)
O=[N+]([O-])c1cccc2cn[nH]c12 | 136% (inactive)
Cc1cccc(C)c1NC1=NCCCS1 | 114% (inactive)
Nc1ccn([C@H]2CC[C@@H](CO)O2)c(=O)n1 | 103% (inactive)
Cc1ncc(CNC(=O)N(CCCl)N=O)c(N)n1 | 90.1% (inactive)
CCCCCCCCCCCCCCCC(=O)NCCO | 96.1% (inactive)
CNCC[C@@H](Oc1ccc(C(F)(F)F)cc1)c1ccccc1 | 113% (inactive)
Cc1cc(N)c2ccccc2[n+]1CCCCCCCCCC[n+]1c(C)cc(N)c2ccccc21 | 100% (inactive)
CCCCCC(O)CCCC(=O)O (stereo not drawn) | 101% (inactive)
Cc1nc2c([nH]1)c(=O)n(C)c(=O)n2Cc1ccco1 | 93.1% (inactive)

Structure (SMILES) | vessel count % control
c1ccc2c(c1)OCC(C1=NCCN1)O2 (stereo not drawn) | 146% (inactive)
C[C@@H]1O[C@@H](O[C@H]2C[C@@H](O)[C@]3(CO)[C@@H]4C(CC[C@]3(O)C2)[C@@]2(O)CC[C@H](C3COC(=O)C3)[C@@]2(C)C[C@H]4O)[C@H](O)[C@H](O)[C@H]1O (stereo partly drawn) | 104% (inactive)
COc1ccc2c(c1)[C@@]13CCCC[C@H]1[C@@H](C2)NCC3 | 78.3% (inactive)
CN1CCN(CCCN2c3ccccc3Sc3ccc(Cl)cc32)CC1 | 68.9% (inactive)
Cn1cnc2c(NC3CCCC3)ncnc21 | 95.9% (inactive)
O=C(c1ccccc1)c1ccc2n1CCC2C(=O)O (stereo not drawn) | 79.7% (inactive)
CC(C)[C@@H]1NC(=O)[C@H](CCCCN)NC(=O)[C@@H](Cc2c[nH]c3ccccc23)NC(=O)[C@H](Cc2ccc(O)cc2)NC(=O)[C@H](C)N(C)C(=O)[C@H](Cc2ccccc2)NC1=O | 101% (inactive)
O=c1cc(-c2ccccc2)[nH]c2nc(Cl)ccc12 | 0% (inactive)
CC(C)C[C@H](NC(=O)[C@@H](O)[C@H](N)Cc1ccccc1)C(=O)O | 123% (inactive)
N#CC(C#N)=Cc1cc(O)c(O)c(O)c1 | 107% (inactive)
N#CC(C#N)=Cc1ccc([N+](=O)[O-])c(O)c1 | 88.6% (inactive)
C[N+]1(CCCCC[N+]2(C)CCCC2)CCCC1 | 114% (inactive)
O=c1c2ccccc2[se]n1-c1ccccc1 | 94.8% (inactive)
CCCN(CCC)[C@H]1CCc2c(F)ccc(O)c2C1 | 93.1% (inactive)
CN(C)[C@@H]1C(=O)C(C(N)=O)=C(O)[C@@]2(O)C(=O)C3=C(O)c4c(O)ccc(Cl)c4[C@@H](O)[C@H]3C[C@@H]12 | 87.7% (inactive)
CC1(C)CCC=[N+]1[O-] | 85.7% (inactive)
Nc1ncnc2c1c(-c1ccc(Oc3ccccc3)cc1)cn2C1CCCC1 | 77.9% (inactive)
CCN(CC)C(=O)c1ccc(O)c(OC)c1 | 96.8% (inactive)
O=C(O)CN(CCOCCOCCN(CC(=O)O)CC(=O)O)CC(=O)O | 103% (inactive)
O=C1C=CC(=O)C=C1 | 84.8% (inactive)
C[C@]12CCC(=O)C=C1CC[C@@H]1[C@@H]2CC[C@@]2(C)[C@H]1CC[C@]2(O)C(=O)CO | 106% (inactive)
CN1CCc2cccc(Cl)c2CC1 | 93.2% (inactive)
NC[C@@H]1O[C@H](C23CC4CC(CC(C4)C2)C3)Cc2c1ccc(O)c2O | 110% (inactive)
C[C@@H]1O[C@H](C[N+](C)(C)C)C[C@H]1O | 104% (inactive)
N#C/C(=C\c1ccc(O)c(O)c1)C(=O)NCCCc1ccccc1 | 137% (inactive)

Structure (SMILES) | vessel count % control
COc1cc2nc(N3CCN(C(=O)OCc4ccccc4)C(C(=O)NC(C)(C)C)C3)nc(N)c2cc1OC (stereo not drawn) | 104% (inactive)
CC(N)c1cccc(Cl)c1Cl (stereo not drawn) | 89.7% (inactive)
COc1cc(C(O)CO)ccc1OS(=O)(=O)O (stereo not drawn) | 93.6% (inactive)
O[Si](CCCN1CCCCC1)(c1ccc(F)cc1)C1CCCCC1 (stereo not drawn) | 107% (inactive)
CC(C)NC(C)Cc1ccc(I)cc1 (stereo not drawn) | 109% (inactive)
OCCN(CCO)c1nc(N2CCCCC2)c2nc(N(CCO)CCO)nc(N3CCCCC3)c2n1 | 109% (inactive)
COc1ccc(-c2ccc(N)[n+](CCCC(=O)O)n2)cc1 | 105% (inactive)
O=c1[nH]c2cc([N+](=O)[O-])c([N+](=O)[O-])cc2[nH]c1=O | 104% (inactive)
C[N+]1(C)C2CCC1CC(OC(=O)C(CO)c1ccccc1)C2 (stereo not drawn) | 77.4% (inactive) and 108% (inactive)
CC1(C)NC(=O)N(c2ccc([N+](=O)[O-])c(C(F)(F)F)c2)C1=O | 91.7% (inactive)
NC(N)=NOCC[C@H](N)C(=O)O | 94.1% (inactive)
COc1ccc(C(=O)N2CCCC2=O)cc1 | 116% (inactive)
C#CCN(C)[C@@H](C)Cc1ccccc1 | 74.7% (inactive)
COc1ccccc1N1CCN(CCN2C(=O)CC3(CCCC3)CC2=O)CC1 | 89.5% (inactive)
CCCNC[C@H](O)COc1ccccc1C(=O)CCc1ccccc1 | 93.1% (inactive)
O=C(O)[C@H]1NCCC[C@H]1C(=O)O | 121% (inactive)
Cc1cccc2c(-c3[nH]c4ccccc4c3N=O)c(O)[nH]c12 | 25.1%
CN1CCC(=C2c3ccccc3C=Cc3ccccc32)CC1 | 0% (inactive)
CCCc1c(-c2ccc(O)cc2)nn(-c2ccc(O)cc2)c1-c1ccc(O)cc1 | 106% (inactive)
O=c1c2ccccc2nc2n1CCc1c-2[nH]c2ccccc12 | 64.3% (inactive)
O=C1CCC(N2C(=O)c3ccccc3C2=O)C(=O)N1 (stereo not drawn) | 108% (inactive)
CN(C)c1nc(N(C)C)nc(N(C)C)n1 | 86% (inactive)
C=CCN1CCc2cccc3c2[C@H]1Cc1ccc(O)c(O)c1-3 | 113% (inactive)
